US6630310B1, “Assay for binding between carbohydrate and glycolipid” (Biopolymer Engineering Pharmaceutical, Inc., priority 1996, dated 2003)

Assays:
[1] = system: neutrophil (human blood leukocyte) membranes; assay: ^3H-PGG-Glucan binding to neutrophil membranes; conditions: PMN versus mononuclear cells
Description: The distribution of the receptor for underivatized, aqueous soluble β(1-3)-glucan across various cell lines and human tissues was determined by assessing the binding of radioactively labeled underivatized, aqueous soluble β(1-3)-glucan to membranes derived from a variety of cell types (see Table 2). The amount of radioactively labeled underivatized, aqueous soluble β(1-3)-glucan binding is expressed as mean±standard deviation in ng/mg membrane protein. The non-specific binding is defined as radioactively labeled underivatized, aqueous soluble β(1-3)-glucan bound in the presence of greater than 100-fold excess unlabeled underivatized, aqueous soluble β(1-3)-glucan. The specific binding is determined by (Total Binding)−(Non-Specific Binding), with the number in parenthesis in Table 2 representing the percent total binding. Quantitation of complement receptor 3 (CR3) was carried out by flow cytometry using fluorescently-labeled anti-CD11b, and data are expressed as mean channel fluorescence (MCF) in arbitrary fluorescence units; background fluorescence for isotype controls were subtracted. The neutrophil sample was greater than 95 percent neutrophils by histology. […]
Membranes were diluted to 2 to 5 mg/ml in HBSS with and without 1 mg/ml BSA. […] No radioactivity was found in the oil layer in the absence of added membranes. […]

NF-IL6 = assay: EMSA of NF-IL6 activation in human neutrophils; assay type: cell-based; conditions: 3 μg/ml, 60 minutes at 37° C., relative to control or dextran (FIG. 16B)
Description: Purified human neutrophils were incubated with or without underivatized, aqueous soluble β(1-3)-glucan (3 μg/ml) or dextran (3 μg/ml) for 60 minutes at 37° C. Nuclear extracts were prepared and protein/DNA complex formation assessed by electrophoretic mobility shift assay (EMSA). As shown in FIGS. 16A and 16B, underivatized, aqueous soluble β(1-3)-glucan increased the binding of nuclear extract proteins to an NF-kB or NF-IL6 specific 32P-labeled oligonucleotide probe relative to extracts from either control or dextran-treated neutrophils.
Human neutrophils (4.5×10^6 cells/ml; 10 ml total) purified as described above were incubated in RPMI+10% FCS (Sigma Chemical Co.) for 30 minutes at 37° C. Underivatized, aqueous soluble β(1-3)-glucan or dextran (both at 3 μg/ml) were then added and incubation continued an additional 60 minutes at 37° C. Nothing was added to control cells. At the end of the incubation, cells were washed in ice cold PBS+20 mM EDTA and nuclear extracts prepared and EMSAs performed as described above.

[2] = system: receptor for underivatized, aqueous soluble β(1-3)-glucan on human leukocyte membranes; assay: Competition of ^3H-PGG-Glucan binding to human leukocyte membranes (oil/sucrose binding assay)
Description: Aminated glucan was prepared by reductive amination of curdlan and provided by Dr. Rolph Seljelid (University of Tromsφ, Tromsφ, Norway).
At the end of the incubation, 100 μl aliquots of reaction mixture were layered on top of a double layer density gradient consisting of 100 μl dibutyl phthalate (lower layer) and 100 μl 8% sucrose in PBS (upper layer) in 400 μl centrifuge tubes (Brinkman). The tubes were spun at 15,000×g for 4-5 minutes and the tips containing the membrane pellets were removed, incubated in 300 μl SOLVABLE™ (New England Nuclear, Boston, Mass.) overnight at 50° C. to dissolve the pellet, and then radioactivity determined by liquid scintillation counting. […] Alternatively, membranes were centrifuged directly in their incubation tubes at 15,000×g for 4-5 minutes at 37° C., the pellet washed with HBSS, then pellets solubilized and radioactivity determined by liquid scintillation counting.

[3] = Competition of ^3H-PGG-Glucan binding to GalCer II
Description: Lactosyl ceramide or the sample to be measured was suspended in ethanol. Aliquots as specified were added in triplicate to the wells of a 96-well plate and air dried. The following components were premixed, then 100 μL was added to each well: saline (10 μL) or unlabelled, underivatized, aqueous soluble β(1-3)-glucan (10 μL of a 10 mg/ml stock), ^3H-underivatized, aqueous soluble β(1-3) glucan (10 μL of a 10 μg/ml stock), and HBSS (80 μL). Plates were incubated at 37° C. for 1.5 to 2 hours, then supernatants were removed from each well and discarded. Wells were rinsed with HBSS (200 μL) and SOLVABLE™ (100 μL) was added. The plate was incubated at 60° C. for 5 minutes, then supernatants were removed and counted.

- competition for ^3H-underivatized, aqueous soluble β(1-3)-glucan binding to HLM (in words) ([2]; FIG. 14): competes
- % Control Binding ([2]; addition at 0.1 mg/ml, ^3H-PGG-Glucan binding to human leukocyte membranes): 22%
- % Control Binding ([3]; ligand 0.01 mg hexose/mL): 23.6%
- % Control Binding ([3]; ligand 0.1 mg hexose/mL): 3.0%
- % Control Binding ([3]; ligand 1.0 mg hexose/mL): 1.4%
Substance: underivatized, aqueous soluble β(1-3)-glucan [PGG-Glucan]
- specific binding of human peripheral blood PMN relative to mononuclear cells [1]: five to ten
- binding of nuclear extract proteins to NF-IL6 specific 32P-labeled probe (EMSA, in words) (NF-IL6): increased
